Test results taken from the kinase profiling compilation of Christmann-Franck et al. (2016).
Several values for one entry are separate records, joined by “and”; a condition that tells them apart may be missing. Equal entries are not always repeated.

What was measured:
Assay in all cases: Caliper, Mobility shift assay off-chip
FGFR3 (human) = FGFR3 (human) (UniProt P22607)
DYRK1A (human) = DYRK1A (human) (UniProt Q13627)
[1] = test system: ABL1 (human), P00519 [H396P]
FYN (human) = FYN (human) (UniProt P06241)
FGFR2 (human) = FGFR2 (human) (UniProt P21802)
INSR (human) = INSR (human) (UniProt P06213)
RPS6KA3 KD1 KD2 (human) = RPS6KA3 KD1 KD2 (human) (UniProt P51812)
SGK1 (human) = SGK1 (human) (UniProt O00141)
SGK1 (human), sequence (O00141 whole entry, looked up): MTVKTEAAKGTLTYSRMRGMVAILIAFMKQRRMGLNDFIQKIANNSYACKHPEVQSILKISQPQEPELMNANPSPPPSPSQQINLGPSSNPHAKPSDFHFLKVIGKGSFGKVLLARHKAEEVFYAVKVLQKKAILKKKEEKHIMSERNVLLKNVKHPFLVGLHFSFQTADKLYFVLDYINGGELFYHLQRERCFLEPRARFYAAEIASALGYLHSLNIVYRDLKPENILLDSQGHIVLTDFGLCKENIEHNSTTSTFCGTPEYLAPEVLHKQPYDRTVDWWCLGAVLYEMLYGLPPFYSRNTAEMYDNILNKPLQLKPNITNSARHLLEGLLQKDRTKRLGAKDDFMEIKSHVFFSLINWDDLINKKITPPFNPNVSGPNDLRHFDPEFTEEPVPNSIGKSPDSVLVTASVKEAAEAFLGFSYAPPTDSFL

PRKD1 (human) = PRKD1 (human) (UniProt Q15139)
HCK (human) = HCK (human) (UniProt P08631)
GSK3B (human) = GSK3B (human) (UniProt P49841)
PRKCG (human) = PRKCG (human) (UniProt P05129)
PRKG1 (human) = PRKG1 (human) (UniProt Q13976)
LCK (human) = LCK (human) (UniProt P06239)
LCK (human), sequence (P06239 whole entry, looked up): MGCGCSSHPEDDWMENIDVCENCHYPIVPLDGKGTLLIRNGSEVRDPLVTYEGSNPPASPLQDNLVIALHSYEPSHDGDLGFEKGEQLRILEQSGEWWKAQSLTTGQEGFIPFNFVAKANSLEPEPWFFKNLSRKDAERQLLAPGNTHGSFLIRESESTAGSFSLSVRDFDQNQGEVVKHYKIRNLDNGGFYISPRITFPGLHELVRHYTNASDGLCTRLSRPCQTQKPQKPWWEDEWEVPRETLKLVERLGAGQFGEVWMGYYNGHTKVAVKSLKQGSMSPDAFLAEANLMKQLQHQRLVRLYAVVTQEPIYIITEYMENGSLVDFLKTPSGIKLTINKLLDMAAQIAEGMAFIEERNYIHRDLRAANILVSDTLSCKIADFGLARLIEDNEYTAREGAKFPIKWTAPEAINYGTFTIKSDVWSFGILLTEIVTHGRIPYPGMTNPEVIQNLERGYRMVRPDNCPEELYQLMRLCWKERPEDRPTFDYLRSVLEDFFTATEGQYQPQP

RAF1 (human) = RAF1 (human) (UniProt P04049)
RAF1 (human), sequence (P04049 whole entry, looked up): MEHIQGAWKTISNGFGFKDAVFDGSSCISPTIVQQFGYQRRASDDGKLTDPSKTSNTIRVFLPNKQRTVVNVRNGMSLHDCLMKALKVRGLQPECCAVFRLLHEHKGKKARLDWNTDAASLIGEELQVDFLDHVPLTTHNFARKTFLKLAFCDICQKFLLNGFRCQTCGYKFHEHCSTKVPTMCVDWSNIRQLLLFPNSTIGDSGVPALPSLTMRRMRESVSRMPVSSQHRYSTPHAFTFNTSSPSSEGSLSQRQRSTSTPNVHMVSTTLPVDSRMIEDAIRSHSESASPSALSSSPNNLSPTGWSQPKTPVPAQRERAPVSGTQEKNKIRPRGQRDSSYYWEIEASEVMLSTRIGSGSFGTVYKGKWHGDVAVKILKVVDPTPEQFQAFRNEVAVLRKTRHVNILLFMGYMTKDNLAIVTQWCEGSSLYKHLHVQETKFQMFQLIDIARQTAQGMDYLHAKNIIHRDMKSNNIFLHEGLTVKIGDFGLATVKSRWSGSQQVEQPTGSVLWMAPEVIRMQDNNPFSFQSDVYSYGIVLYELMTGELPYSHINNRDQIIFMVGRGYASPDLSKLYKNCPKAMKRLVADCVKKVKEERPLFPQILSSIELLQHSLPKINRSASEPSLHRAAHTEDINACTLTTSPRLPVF

ROCK2 (human) = ROCK2 (human) (UniProt O75116)
CHEK2 (human) = CHEK2 (human) (UniProt O96017)
AURKA (human) = AURKA (human) (UniProt O14965)
AURKA (human), sequence (O14965 whole entry, looked up): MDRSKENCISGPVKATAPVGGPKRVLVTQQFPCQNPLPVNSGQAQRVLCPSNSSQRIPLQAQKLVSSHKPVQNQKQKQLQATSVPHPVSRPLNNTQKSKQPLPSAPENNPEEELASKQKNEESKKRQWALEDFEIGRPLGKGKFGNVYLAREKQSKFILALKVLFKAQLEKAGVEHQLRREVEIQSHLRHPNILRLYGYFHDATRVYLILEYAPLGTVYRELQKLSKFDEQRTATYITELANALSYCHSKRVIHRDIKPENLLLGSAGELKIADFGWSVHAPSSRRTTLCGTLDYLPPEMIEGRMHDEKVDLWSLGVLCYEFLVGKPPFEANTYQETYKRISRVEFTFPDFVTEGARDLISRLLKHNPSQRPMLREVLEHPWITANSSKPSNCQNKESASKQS

MAPK3 (human) = MAPK3 (human) (UniProt P27361)
MAPK3 (human), sequence (P27361 whole entry, looked up): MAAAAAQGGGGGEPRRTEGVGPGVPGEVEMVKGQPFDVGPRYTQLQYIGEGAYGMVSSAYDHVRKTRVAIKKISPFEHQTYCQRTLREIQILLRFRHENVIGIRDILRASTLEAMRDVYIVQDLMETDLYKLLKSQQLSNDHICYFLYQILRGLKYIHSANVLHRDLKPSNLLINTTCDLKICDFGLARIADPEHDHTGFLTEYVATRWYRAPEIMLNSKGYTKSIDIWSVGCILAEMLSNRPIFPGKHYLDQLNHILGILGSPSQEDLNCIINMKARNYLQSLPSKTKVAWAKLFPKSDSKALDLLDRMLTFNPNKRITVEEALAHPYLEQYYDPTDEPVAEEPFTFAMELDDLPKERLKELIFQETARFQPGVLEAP

PRKD2 (human) = PRKD2 (human) (UniProt Q9BZL6)
PRKD2 (human), sequence (Q9BZL6 whole entry, looked up): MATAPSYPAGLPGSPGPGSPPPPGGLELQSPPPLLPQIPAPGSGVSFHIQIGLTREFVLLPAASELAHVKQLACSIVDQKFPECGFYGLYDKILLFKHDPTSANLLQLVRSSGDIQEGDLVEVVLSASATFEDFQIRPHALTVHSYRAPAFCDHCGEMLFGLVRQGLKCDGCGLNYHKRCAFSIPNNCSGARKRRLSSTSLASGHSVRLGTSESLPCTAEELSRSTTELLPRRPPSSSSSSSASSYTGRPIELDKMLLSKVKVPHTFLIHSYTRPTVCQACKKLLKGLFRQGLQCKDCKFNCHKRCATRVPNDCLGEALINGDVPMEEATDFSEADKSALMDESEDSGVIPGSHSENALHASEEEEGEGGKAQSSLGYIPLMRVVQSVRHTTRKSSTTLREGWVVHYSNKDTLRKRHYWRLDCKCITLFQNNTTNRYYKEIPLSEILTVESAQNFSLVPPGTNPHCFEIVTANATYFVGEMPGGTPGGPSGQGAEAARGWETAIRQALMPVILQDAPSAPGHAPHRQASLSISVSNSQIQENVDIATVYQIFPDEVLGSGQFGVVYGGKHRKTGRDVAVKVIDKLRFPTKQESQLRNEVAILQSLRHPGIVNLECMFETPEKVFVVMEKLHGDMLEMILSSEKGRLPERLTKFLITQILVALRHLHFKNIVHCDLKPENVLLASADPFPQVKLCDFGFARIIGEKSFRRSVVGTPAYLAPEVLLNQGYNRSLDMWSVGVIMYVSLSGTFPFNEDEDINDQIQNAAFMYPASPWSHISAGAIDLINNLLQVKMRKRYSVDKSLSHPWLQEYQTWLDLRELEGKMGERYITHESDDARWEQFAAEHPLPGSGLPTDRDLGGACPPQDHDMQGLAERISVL

MAPK1 (human) = MAPK1 (human) (UniProt P28482)
MAPK1 (human), sequence (P28482 whole entry, looked up): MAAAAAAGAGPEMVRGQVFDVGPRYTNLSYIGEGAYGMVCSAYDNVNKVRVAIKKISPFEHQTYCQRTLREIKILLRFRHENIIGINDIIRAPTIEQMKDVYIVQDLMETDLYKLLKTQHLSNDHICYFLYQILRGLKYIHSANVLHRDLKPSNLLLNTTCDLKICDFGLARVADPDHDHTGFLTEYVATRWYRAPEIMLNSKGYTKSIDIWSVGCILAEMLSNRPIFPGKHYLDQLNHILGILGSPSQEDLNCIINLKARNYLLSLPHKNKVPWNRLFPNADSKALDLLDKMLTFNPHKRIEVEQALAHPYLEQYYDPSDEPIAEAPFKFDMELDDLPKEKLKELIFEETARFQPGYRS

TSSK1B (human) = TSSK1B (human) (UniProt Q9BXA7)
TSSK1B (human), sequence (Q9BXA7 whole entry, looked up): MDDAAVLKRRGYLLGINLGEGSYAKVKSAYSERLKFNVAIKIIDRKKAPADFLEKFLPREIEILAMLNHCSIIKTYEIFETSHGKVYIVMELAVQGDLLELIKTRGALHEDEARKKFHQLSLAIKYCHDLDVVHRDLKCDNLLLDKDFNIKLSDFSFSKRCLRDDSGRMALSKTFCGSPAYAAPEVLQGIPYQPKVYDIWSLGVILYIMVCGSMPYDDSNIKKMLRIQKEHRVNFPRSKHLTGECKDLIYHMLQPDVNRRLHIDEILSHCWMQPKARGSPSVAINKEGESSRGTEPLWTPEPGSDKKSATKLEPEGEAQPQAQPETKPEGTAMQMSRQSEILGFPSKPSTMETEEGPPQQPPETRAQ

CAMK2B (human) = CAMK2B (human) (UniProt Q13554)
CHEK1 (human) = CHEK1 (human) (UniProt O14757)
CHEK1 (human), sequence (O14757 whole entry, looked up): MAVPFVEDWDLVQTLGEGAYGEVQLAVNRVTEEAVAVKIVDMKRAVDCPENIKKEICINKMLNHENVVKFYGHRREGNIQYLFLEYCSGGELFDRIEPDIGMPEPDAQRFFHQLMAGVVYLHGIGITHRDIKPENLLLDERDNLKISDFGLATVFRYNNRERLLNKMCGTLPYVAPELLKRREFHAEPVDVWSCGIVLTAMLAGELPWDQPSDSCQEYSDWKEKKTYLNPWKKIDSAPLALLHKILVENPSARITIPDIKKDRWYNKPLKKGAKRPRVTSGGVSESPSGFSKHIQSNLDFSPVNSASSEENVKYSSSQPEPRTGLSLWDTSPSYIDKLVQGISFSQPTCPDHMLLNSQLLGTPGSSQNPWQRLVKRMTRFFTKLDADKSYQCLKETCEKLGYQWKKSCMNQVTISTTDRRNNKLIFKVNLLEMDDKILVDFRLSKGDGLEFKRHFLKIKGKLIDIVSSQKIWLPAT

CAMK4 (human) = CAMK4 (human) (UniProt Q16566)
CAMK4 (human), sequence (Q16566 whole entry, looked up): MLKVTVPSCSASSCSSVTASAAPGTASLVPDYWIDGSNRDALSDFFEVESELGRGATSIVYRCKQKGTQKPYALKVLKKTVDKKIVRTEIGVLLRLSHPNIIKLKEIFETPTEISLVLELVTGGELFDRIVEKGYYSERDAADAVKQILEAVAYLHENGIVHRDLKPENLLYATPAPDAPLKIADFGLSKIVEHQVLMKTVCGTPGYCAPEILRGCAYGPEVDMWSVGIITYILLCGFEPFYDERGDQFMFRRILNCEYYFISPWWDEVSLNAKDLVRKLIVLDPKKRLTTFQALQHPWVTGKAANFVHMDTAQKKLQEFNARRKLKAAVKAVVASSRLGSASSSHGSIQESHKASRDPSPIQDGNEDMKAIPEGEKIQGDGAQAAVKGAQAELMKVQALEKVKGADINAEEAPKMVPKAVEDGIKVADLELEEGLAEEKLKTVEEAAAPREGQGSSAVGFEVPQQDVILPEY

FGFR1 (human) = FGFR1 (human) (UniProt P11362)

SMILES: Cn1cc(-c2cnc3ccc4ccc(CS(=O)(=O)NCC5CCCCN5)cc4c(=O)c3c2)cn1 (stereo not given)
- inhibition (FGFR3 (human); compound 0.1 µM): -12.6%
- inhibition (DYRK1A (human); compound 0.1 µM): 2.3%
- inhibition (DYRK1A (human); compound 1.0 µM): 2.1%
- inhibition ([1]; compound 0.1 µM): 14.9%
- inhibition (FYN (human); compound 0.1 µM): 4.37%
- inhibition (FYN (human); compound 1.0 µM): 15.1%
- inhibition (FGFR2 (human); compound 0.1 µM): 3%
- inhibition (INSR (human); compound 0.1 µM): -128%
- inhibition (INSR (human); compound 1.0 µM): -2%
- inhibition (RPS6KA3 KD1 KD2 (human); compound 0.1 µM): 0.2%
- inhibition (RPS6KA3 KD1 KD2 (human); compound 1.0 µM): -6%
- inhibition (SGK1 (human); compound 0.1 µM): 7.2%
- inhibition (SGK1 (human); compound 1.0 µM): 9.6%
- inhibition (PRKD1 (human); compound 0.1 µM): -8.3%
- inhibition (PRKD1 (human); compound 1.0 µM): -1.9%
- inhibition (HCK (human); compound 0.1 µM): -2.1%
- inhibition (GSK3B (human); compound 1.0 µM): 2%
- inhibition (PRKCG (human); compound 0.1 µM): 6.2%
- inhibition (PRKCG (human); compound 1.0 µM): 2.7%
- inhibition (PRKG1 (human); compound 0.1 µM): -3.8% and -2.5%
- inhibition (PRKG1 (human); compound 1.0 µM): -2.7%
- inhibition (LCK (human); compound 0.1 µM): 18.4%
- inhibition (LCK (human); compound 1.0 µM): -1.2%
- inhibition (RAF1 (human); compound 0.1 µM): 5.4%
- inhibition (RAF1 (human); compound 1.0 µM): -0.8%
- inhibition (ROCK2 (human); compound 0.1 µM): 3.6%
- inhibition (ROCK2 (human); compound 1.0 µM): -1.6%
- inhibition (CHEK2 (human); compound 0.1 µM): 4.63%
- inhibition (CHEK2 (human); compound 1.0 µM): -0.5%
- inhibition (AURKA (human); compound 0.1 µM): 14.5%
- inhibition (AURKA (human); compound 1.0 µM): 26.8%
- inhibition (MAPK3 (human); compound 0.1 µM): 7.2%
- inhibition (MAPK3 (human); compound 1.0 µM): 2.8%
- inhibition (PRKD2 (human); compound 0.1 µM): -3.8%
- inhibition (PRKD2 (human); compound 1.0 µM): 15%
- inhibition (MAPK1 (human); compound 0.1 µM): 1.1%
- inhibition (MAPK1 (human); compound 1.0 µM): -4.4%
- inhibition (TSSK1B (human); compound 0.1 µM): -2.7%
- inhibition (CAMK2B (human); compound 0.1 µM): 2.1%
- inhibition (CHEK1 (human); compound 0.1 µM): 1.1%
- inhibition (CHEK1 (human); compound 1.0 µM): 0.4%
- inhibition (CAMK4 (human); compound 0.1 µM): -1.9%
- inhibition (CAMK4 (human); compound 1.0 µM): -4.2%

SMILES: O=c1c2cc(CS(=O)(=O)NCc3ccccn3)ccc2ccc2ncc(C3CCNCC3)cc12
- inhibition (FGFR3 (human); compound 0.01 µM): -38.6%
- inhibition (FGFR3 (human); compound 0.1 µM): -12.3%
- inhibition (DYRK1A (human); compound 0.01 µM): 7.6%
- inhibition (DYRK1A (human); compound 0.1 µM): -4.3%
- inhibition ([1]; compound 0.01 µM): 4.8%
- inhibition ([1]; compound 0.1 µM): -2.5%
- inhibition (FYN (human); compound 0.01 µM): -0.4%
- inhibition (FYN (human); compound 0.1 µM): -7.3%
- inhibition (FGFR2 (human); compound 0.01 µM): -8.2%
- inhibition (FGFR2 (human); compound 0.1 µM): 8.7%
- inhibition (INSR (human); compound 0.01 µM): -1.4%
- inhibition (INSR (human); compound 0.1 µM): -2.5%
- inhibition (RPS6KA3 KD1 KD2 (human); compound 0.01 µM): -1.1%
- inhibition (RPS6KA3 KD1 KD2 (human); compound 0.1 µM): 8.1%
- inhibition (SGK1 (human); compound 0.01 µM): -3.6%
- inhibition (SGK1 (human); compound 0.1 µM): -31.9%
- inhibition (PRKD1 (human); compound 0.01 µM): -2.8%
- inhibition (PRKD1 (human); compound 0.1 µM): -4.1%
- inhibition (HCK (human); compound 0.01 µM): 2.6%
- inhibition (HCK (human); compound 0.1 µM): -2%
- inhibition (FGFR1 (human); compound 0.01 µM): 3.8%
- inhibition (FGFR1 (human); compound 0.1 µM): 10.7%
- inhibition (GSK3B (human); compound 0.01 µM): -1.8%
- inhibition (GSK3B (human); compound 0.1 µM): -1%
- inhibition (PRKCG (human); compound 0.01 µM): -3.2%
- inhibition (PRKCG (human); compound 0.1 µM): 1.8%
- inhibition (PRKG1 (human); compound 0.01 µM): 2% and 2.1%
- inhibition (PRKG1 (human); compound 0.1 µM): 3.8% and -4.6%
- inhibition (LCK (human); compound 0.01 µM): -2.9%
- inhibition (LCK (human); compound 0.1 µM): 3.3%
- inhibition (RAF1 (human); compound 0.01 µM): 1.4%
- inhibition (RAF1 (human); compound 0.1 µM): 0.6%
- inhibition (ROCK2 (human); compound 0.01 µM): 5.8%
- inhibition (ROCK2 (human); compound 0.1 µM): 8.4%
- inhibition (CHEK2 (human); compound 0.01 µM): -5.2%
- inhibition (CHEK2 (human); compound 0.1 µM): -5.1%
- inhibition (AURKA (human); compound 0.01 µM): -4.6%
- inhibition (AURKA (human); compound 0.1 µM): 13.1%
- inhibition (MAPK3 (human); compound 0.01 µM): -1%
- inhibition (MAPK3 (human); compound 0.1 µM): 1.7%
- inhibition (PRKD2 (human); compound 0.01 µM): -6.3%
- inhibition (PRKD2 (human); compound 0.1 µM): -5.2%
- inhibition (MAPK1 (human); compound 0.01 µM): -2.5%
- inhibition (MAPK1 (human); compound 0.1 µM): -0.1%
- inhibition (TSSK1B (human); compound 0.01 µM): 7.3%
- inhibition (TSSK1B (human); compound 0.1 µM): -5.2%
- inhibition (CAMK2B (human); compound 0.01 µM): 79.2%
- inhibition (CAMK2B (human); compound 0.1 µM): -4.6%
- inhibition (CHEK1 (human); compound 0.01 µM): -2.8%
- inhibition (CHEK1 (human); compound 0.1 µM): -6%
- inhibition (CAMK4 (human); compound 0.01 µM): 2.8%
- inhibition (CAMK4 (human); compound 0.1 µM): -12.8%
